Reference: patent US6664231B1, “Anti-fungal peptides” (priority 1993, dated 2003)
Square brackets hold non-standard residues; d marks the D form. Ends that are not written are not given here. Peptide text beside a SMILES is read from it. Phe(4-NH2) = Nc1ccc(C[C@H](N)C(=O)O)cc1; 1Nal = N[C@@H](Cc1cccc2ccccc12)C(=O)O; d2Nal = N[C@H](Cc1ccc2ccccc2c1)C(=O)O; Tle = CC(C)(C)[C@H](N)C(=O)O; Aib = CC(C)(N)C(=O)O; GABA = NCCCC(=O)O

System: C. albicans (CA-1, Strain SLU-1)
Experiment: Radial diffusion assay
Type: cell-based, Candida albicans
Conditions: for C. albicans pmol/30 mm^2 zone: pmoles of peptide added to well to achieve a 30 mm^2 zone, PROBIT analysis, crude or purified (P′) peptide; for Plate Assay (nmol), crude peptide activity / Plate Assay (nmol), pure peptide activity: nanomoles required to achieve a net 30 mm^2 zone (log titration curve); for Plate Assay (nmol), pure peptide activity: HPLC-purified peptide
Protocol: In the radial diffusion assay procedures, the CA-1 cultures and peptide solutions were prepared as in the broth assay procedure described above. Ten mL of molten underlayer agarose comprising 3% Sabouraud Dextrose broth, 1% agarose (Pharmacia, Piscataway, N.J.), 0.02% Tween 20, and 10 mM sodium phosphate at pH 7.4, was added to polystyrene tubes and maintained in a 56° C. water bath until the addition of yeast. Tubes were cooled to approximately 45° C., yeast were added to give a final concentration of 1×10^6 CFU/mL, and the tubes were mixed again by inverting. The contents were poured into level square petri dishes and distributed evenly. […] A series of wells were punched into the hardened agarose using a sterile 3 mm punch attached to a vacuum apparatus.
Peptides to be assayed were 2-fold serially diluted in Dulbecco's PBS (D-PBS) starting from a concentration of approximately 1 mg/mL. Five μL of each dilution were added to each well and the plates were incubated at 37° C. for 3 hours. An overlayer of 10 mL of molten agarose comprising 6% Sabouraud Dextrose broth, 1% agarose, and 10 mM sodium phosphate, pH 7.4, (at approximately 45° C.) was then added and plates were incubated overnight at 37° C. Following this overnight incubation, a dilute Coomassie solution was poured into the plates and allowed to stain for 24 hours.
Clear zones of growth inhibition around each well were measured with calipers. The actual area of growth inhibition (mm^2) was calculated by subtracting the area of the well. Table 1 below sets out the results of the radial diffusion assays for tested peptides in terms of the number of picomoles (pmol) of peptide required to establish a 30 mm^2 area of growth inhibition calculated by PROBIT analysis (e.g., calculated from regression of the linear portion of log-concentration dose-response curve, log pmol/well vs. net area of inhibition).

For H-KSKVGWLIELFHKK-NH2 [XMP.263], the “C. albicans pmol/30 mm^2 zone” value was 1,197 pmol/30 mm^2 zone.

H-SKVKWLIQLFH-NH2 [XMP.287] was tested, and the “C. albicans pmol/30 mm^2 zone” value was >3,509 pmol/30 mm^2 zone.

In the case of `CC[C@H](C)[C@H](NC(=O)[C@H](CC(C)C)NC(=O)CCCNC(=O)CNC(=O)[C@@H](NC(=O)[C@H](CCCCN)NC(=O)[C@H](CO)NC(=O)[C@@H](N)CCCCN)C(C)C)C(=O)N[C@@H](CCC(N)=O)C(=O)N[C@@H](CC(C)C)C(=O)N[C@@H](Cc1ccccc1)C(=O)N[C@@H](Cc1c[nH]cn1)C(=O)N[C@@H](CCCCN)C(=O)N[C@@H](CCCCN)C(N)=O` [XMP.256] (H-KSKVG[GABA]LIQLFHKK-NH2), the “C. albicans pmol/30 mm^2 zone” value was “b (No detectable activity up to 5 μg/well)”.

H-KSKVKWLIKLFHKK-NH2 [XMP.100] was tested, and the “C. albicans pmol/30 mm^2 zone” value was 462 pmol/30 mm^2 zone.

For `CC[C@H](C)[C@H](NC(=O)[C@H](CC(C)C)NC(=O)[C@H](Cc1c[nH]c2ccccc12)NC(=O)[C@H](CCCCN)NC(=O)[C@@H](N)CCCCN)C(=O)N[C@@H](CCC(N)=O)C(=O)N[C@@H](CC(C)C)C(=O)N[C@@H](CCCCN)C(N)=O` [XMP.326], the “C. albicans pmol/30 mm^2 zone” value was 2,182 pmol/30 mm^2 zone.

With H-SKVKWLI-NH2 [Peptide 305] the “Plate Assay (nmol), crude peptide activity” value was greater than 10.228 nmol.

With H-SKVKWLI-NH2 [XMP.305] the “C. albicans pmol/30 mm^2 zone” value was >10,228 pmol/30 mm^2 zone.

With H-KWLIQLFH-NH2 [Peptide 302] the “Plate Assay (nmol), pure peptide activity” value was 2.07 nmol and the “Plate Assay (nmol), crude peptide activity” value was greater than 5.497 nmol.

For `CC[C@H](C)[C@H](NC(=O)[C@H](CC(C)C)NC(=O)[C@@H](NC(=O)CNC(=O)[C@@H](NC(=O)[C@H](CCCCN)NC(=O)[C@H](CO)NC(=O)[C@@H](N)CCCCN)C(C)C)C(C)(C)C)C(=O)N[C@@H](CCC(N)=O)C(=O)N[C@@H](CC(C)C)C(=O)N[C@@H](Cc1ccccc1)C(=O)N[C@@H](Cc1c[nH]cn1)C(=O)N[C@@H](CCCCN)C(=O)N[C@@H](CCCCN)C(N)=O` [XMP.258] (H-KSKVG[Tle]LIQLFHKK-NH2), the “C. albicans pmol/30 mm^2 zone” value was 880 pmol/30 mm^2 zone.

With `CC[C@H](C)[C@H](NC(=O)[C@H](CC(C)C)NC(=O)[C@@H](Cc1ccc2ccccc2c1)NC(=O)CNC(=O)[C@@H](NC(=O)[C@H](CCCCN)NC(=O)[C@H](CO)NC(=O)[C@@H](N)CCCCN)C(C)C)C(=O)N[C@@H](CC(C)C)C(=O)N[C@@H](CC(C)C)C(=O)N[C@@H](Cc1ccccc1)C(=O)N[C@@H](Cc1c[nH]cn1)C(=O)N[C@@H](CCCCN)C(=O)N[C@@H](CCCCN)C(N)=O` [XMP.242] (H-KSKVG[d2Nal]LILLFHKK-NH2) the “C. albicans pmol/30 mm^2 zone” value was 359 pmol/30 mm^2 zone.

With H-SKVKWLIQLFHK-NH2 [XMP.285] the “C. albicans pmol/30 mm^2 zone” value was >3,024 pmol/30 mm^2 zone.

In the case of H-KSKVLWLIQLFHKK-NH2 [XMP.85], the “C. albicans pmol/30 mm^2 zone” value was greater than 1881 pmol/30 mm^2 zone.

In the case of H-KSKVGWLIQAFHKK-NH2 [XMP.40], the “C. albicans pmol/30 mm^2 zone” value was 253 pmol/30 mm^2 zone.

H-KSKVKWLIQLWHKK-NH2 [XMP.124] was tested, and the “C. albicans pmol/30 mm^2 zone” value was 351 pmol/30 mm^2 zone.

In the case of “XMP.380: K - K - Q - L - L - L - L - K - K (SEQ ID NO:211) (KKQLLLLKK)”, the “C. albicans pmol/30 mm^2 zone” value was 886 pmol/30 mm^2 zone.

H-KSKVAWLIQLFHKK-NH2 [XMP.35] was tested, and the “C. albicans pmol/30 mm^2 zone” value was 442 pmol/30 mm^2 zone.

In the case of H-KSKVGWLAQLFHKK-NH2 [XMP.38], the “C. albicans pmol/30 mm^2 zone” value was 391 pmol/30 mm^2 zone.

With `CC[C@H](C)[C@H](NC(=O)[C@H](CC(C)C)NC(=O)[C@H](Cc1cccc2ccccc12)NC(=O)CNC(=O)[C@@H](NC(=O)[C@H](CCCCN)NC(=O)[C@H](CO)NC(=O)[C@@H](N)CCCCN)C(C)C)C(=O)N[C@@H](CCC(N)=O)C(=O)N[C@@H](CC(C)C)C(=O)N[C@@H](Cc1ccccc1)C(=O)N[C@@H](Cc1c[nH]cn1)C(=O)N[C@@H](CCCCN)C(=O)N[C@@H](Cc1cccc2ccccc12)C(N)=O` [XMP.222] (H-KSKVG[1Nal]LIQLFHK[1Nal]-NH2) the “C. albicans pmol/30 mm^2 zone” value was >2,610 pmol/30 mm^2 zone.

In the case of H-KSKVGILIQLFHKK-NH2 [XMP.251], the “C. albicans pmol/30 mm^2 zone” value was 1,289 pmol/30 mm^2 zone.

For `CC[C@H](C)[C@H](NC(=O)[C@H](CC(C)C)NC(=O)[C@H](Cc1cccc2ccccc12)NC(=O)[C@H](CCCCN)NC(=O)[C@@H](NC(=O)[C@H](CCCCN)NC(=O)[C@H](CO)NC(=O)[C@@H](N)CCCCN)C(C)C)C(=O)N[C@@H](CCC(N)=O)C(=O)N[C@@H](CC(C)C)C(=O)N[C@@H](Cc1ccccc1)C(=O)N[C@@H](Cc1c[nH]cn1)C(=O)N[C@@H](CCCCN)C(=O)N[C@@H](CCCCN)C(N)=O` [XMP.116] (H-KSKVK[1Nal]LIQLFHKK-NH2), the “C. albicans pmol/30 mm^2 zone” value was 670 pmol/30 mm^2 zone.

With H-KSKAGWLIQLFHKK-NH2 [XMP.34] the “C. albicans pmol/30 mm^2 zone” value was 319 pmol/30 mm^2 zone.

With Ac-PWLIQLFHKK-OH [XMP.354] the “C. albicans pmol/30 mm^2 zone” value was 6,361 pmol/30 mm^2 zone.

In the case of `CC[C@H](C)[C@H](NC(=O)[C@H](CC(C)C)NC(=O)[C@H](Cc1cccc2ccccc12)NC(=O)[C@H](Cc1ccc(N)cc1)NC(=O)[C@@H](NC(=O)[C@H](CCCCN)NC(=O)[C@H](CO)NC(=O)[C@@H](N)CCCCN)C(C)C)C(=O)N[C@@H](CCC(N)=O)C(=O)N[C@@H](CC(C)C)C(=O)N[C@@H](Cc1ccccc1)C(=O)N[C@@H](Cc1c[nH]cn1)C(=O)N[C@@H](CCCCN)C(=O)N[C@@H](CCCCN)C(N)=O` [XMP.225] (H-KSKV[Phe(4-NH2)][1Nal]LIQLFHKK-NH2), the “C. albicans pmol/30 mm^2 zone” value was >2,506 pmol/30 mm^2 zone and the “C. albicans pmol/30 mm^2 zone” value (listed as XMP.225P′) was >2,736 pmol/30 mm^2 zone.

With `CC[C@H](C)[C@H](NC(=O)[C@H](CC(C)C)NC(=O)[C@H](Cc1c[nH]c2ccccc12)NC(=O)[C@@H](N)CCCCN)C(=O)N[C@@H](CCC(N)=O)C(=O)N[C@@H](CC(C)C)C(=O)N[C@@H](CCCCN)C(N)=O` [XMP.323] the “C. albicans pmol/30 mm^2 zone” value was >4,627 pmol/30 mm^2 zone.

H-KVKWLIQLF-NH2 [Peptide 295] was tested, and the “Plate Assay (nmol), pure peptide activity” value was greater than 2.612 nmol and the “Plate Assay (nmol), crude peptide activity” value was greater than 1.977 nmol.

In the case of “H-KSKVGWLIQLFHKKKSKVGWLIFLFHKK-NH2 [XMP.274]”, the “C. albicans pmol/30 mm^2 zone” value was >2,457 pmol/30 mm^2 zone.

For `CC[C@H](C)[C@H](NC(=O)[C@H](CC(C)C)NC(=O)[C@H](Cc1c[nH]c2ccccc12)NC(=O)[C@@H](N)CCCCN)C(=O)N[C@@H](CCC(N)=O)C(=O)N[C@@H](CC(C)C)C(=O)N[C@@H](Cc1ccccc1)C(=O)N[C@@H](Cc1c[nH]cn1)C(=O)N[C@@H](CCCCN)C(=O)N[C@@H](CCCCN)C(N)=O` [Peptide 293], the “Plate Assay (nmol), pure peptide activity” value was 0.215 nmol and the “Plate Assay (nmol), crude peptide activity” value was 1.156 nmol.

With “XMP.408: L - K - K - K - W - A - I - Q (cyclized head to tail) (SEQ ID NO:239) (LKKKWAIQ; head-to-tail cyclized)” the “C. albicans pmol/30 mm^2 zone” value was “b (No detectable activity up to 5 μg/well)”.

With `CC[C@H](C)[C@H](NC(=O)[C@H](CC(C)C)NC(=O)C(C)(C)NC(=O)CNC(=O)[C@@H](NC(=O)[C@H](CCCCN)NC(=O)[C@H](CO)NC(=O)[C@@H](N)CCCCN)C(C)C)C(=O)N[C@@H](CCC(N)=O)C(=O)N[C@@H](CC(C)C)C(=O)N[C@@H](Cc1ccccc1)C(=O)N[C@@H](Cc1c[nH]cn1)C(=O)N[C@@H](CCCCN)C(=O)N[C@@H](CCCCN)C(N)=O` [XMP.257] (H-KSKVG[Aib]LIQLFHKK-NH2) the “C. albicans pmol/30 mm^2 zone” value was 1,321 pmol/30 mm^2 zone.

For H-KSKVGGLIQLFHKK-NH2 [XMP.249], the “C. albicans pmol/30 mm^2 zone” value was 1,242 pmol/30 mm^2 zone.

For H-KSKVKALIQLFHKK-NH2 [XMP.161], the “C. albicans pmol/30 mm^2 zone” value was greater than 2999 pmol/30 mm^2 zone.

For “XMP.359: CD - 153-161 (SEQ ID NO:190) ([dC]WLIQLFHKK)”, the “C. albicans pmol/30 mm^2 zone” value was “b (No detectable activity up to 5 μg/well)”.

In the case of `CC[C@H](C)[C@H](NC(=O)[C@H](CC(C)C)NC(=O)[C@H](Cc1c[nH]c2ccccc12)NC(=O)[C@H](Cc1ccc(N)cc1)NC(=O)[C@@H](NC(=O)[C@H](CCCCN)NC(=O)[C@H](CO)NC(=O)[C@@H](N)CCCCN)C(C)C)C(=O)N[C@@H](CCC(N)=O)C(=O)N[C@@H](Cc1cccc2ccccc12)C(=O)N[C@@H](Cc1ccccc1)C(=O)N[C@@H](Cc1c[nH]cn1)C(=O)N[C@@H](CCCCN)C(=O)N[C@@H](CCCCN)C(N)=O` [XMP.236] (H-KSKV[Phe(4-NH2)]WLIQ[1Nal]FHKK-NH2), the “C. albicans pmol/30 mm^2 zone” value was >2,631 pmol/30 mm^2 zone.

With H-KSKVGWLIQLFFKK-NH2 [XMP.94] the “C. albicans pmol/30 mm^2 zone” value was greater than 923 pmol/30 mm^2 zone.

For `CC[C@H](C)[C@H](NC(=O)[C@H](CC(C)C)NC(=O)[C@H](Cc1c[nH]c2ccccc12)NC(=O)[C@@H](N)CCCCN)C(=O)N[C@@H](CCC(N)=O)C(=O)N[C@@H](CC(C)C)C(=O)N[C@@H](Cc1ccccc1)C(=O)N[C@@H](Cc1c[nH]cn1)C(=O)N[C@@H](CCCCN)C(N)=O` [XMP.297], the “C. albicans pmol/30 mm^2 zone” value was 1,817 pmol/30 mm^2 zone and the “C. albicans pmol/30 mm^2 zone” value (listed as XMP.297P′) was 564 pmol/30 mm^2 zone.

With H-WLIQLK-NH2 [XMP.321] the “C. albicans pmol/30 mm^2 zone” value was >5,851 pmol/30 mm^2 zone.
